The record followed here is ChEMBL document CHEMBL2203140, “Syntheses and structure-activity relationship studies of N-substituted-β-D-glucosaminides as selective cytotoxic agents” (Bioorg Med Chem Lett, 2012).

Holding throughout (format): functional, cell-based
One assay has as its system HT-1080. Nature of the assay: Cytotoxicity against human HT1080 cells after 48 hrs by MTT assay. The note with it: HT-1080, 48 h.
In the next assay the test system is HCT-116. Nature of the assay: Cytotoxicity against human HCT116 cells after 48 hrs by MTT assay. The note with it: HCT-116, 48 h.
In another assay the test system is HepG2. Put plainly: Cytotoxicity against human HepG2 cells after 48 hrs by MTT assay. The note with it: HepG2, 48 h.
The next assay has as its system A549. Nature of the assay: Cytotoxicity against human A549 cells after 48 hrs by MTT assay. To be noted: A549, 48 h.
The test system of the next assay is MCF7. Nature of the assay: Cytotoxicity against human MCF7 cells after 48 hrs by MTT assay. To be noted: MCF7, 48 h. Background: Tetrazolium assays rely on reduction of a dye to a coloured formazan, in cell work by metabolically active cells.
In another assay the test system is HeLa. Put plainly: Cytotoxicity against human HeLa cells after 48 hrs by MTT assay.

Bounds are passed on as bounds.

As for `C[C@@H]1CC[C@@]2(OC1)O[C@H]1C[C@H]3[C@@H]4CC=C5C[C@@H](O[C@@H]6O[C@H](CO)[C@@H](O)[C@H](O)[C@H]6NC(=O)NN6CCCCC6)CC[C@]5(C)[C@H]4CC[C@]3(C)[C@H]1[C@@H]2C`, the IC50 – broadly, the concentration needed to halve the response being measured – was 35.1 µM in the assay on HT-1080; above 50 µM in the assay with HCT-116; above 50 µM in the assay with HepG2; above 50 µM in the assay on A549; above 50 µM with MCF7; above 50 µM in the assay with HeLa.
`COc1cccc(/C=C/C(=O)N[C@H]2[C@H](O[C@H]3CC[C@@]4(C)C(=CC[C@H]5[C@@H]6C[C@@H]7O[C@]8(CC[C@@H](C)CO8)[C@@H](C)[C@@H]7[C@@]6(C)CC[C@@H]54)C3)O[C@H](CO)[C@@H](O)[C@@H]2O)c1OC`: the IC50 in the assay with HT-1080 came out at 21.2 µM; in the assay with HCT-116 it was 47.4 µM; in the assay with HepG2 it was 45.6 µM; in the assay on A549 it was 43.4 µM; in the assay on MCF7, 44.4 µM; in the assay on HeLa, 36.2 µM.
In the case of `C[C@@H]1CC[C@@]2(OC1)O[C@H]1C[C@H]3[C@@H]4CC=C5C[C@@H](O[C@@H]6O[C@H](CO)[C@@H](O)[C@H](O)[C@H]6NC(=O)NC(C)(C)C)CC[C@]5(C)[C@H]4CC[C@]3(C)[C@H]1[C@@H]2C`, the 50% inhibitory concentration (IC50) is 42.3 µM in the assay on HT-1080; above 50 µM with HCT-116; above 50 µM with HepG2; above 50 µM in the assay with A549; 26.8 µM with MCF7; 27.6 µM with HeLa.
For the compound `COc1ccc(OC)c(/C=C/C(=O)N[C@H]2[C@H](O[C@H]3CC[C@@]4(C)C(=CC[C@H]5[C@@H]6C[C@@H]7O[C@]8(CC[C@@H](C)CO8)[C@@H](C)[C@@H]7[C@@]6(C)CC[C@@H]54)C3)O[C@H](CO)[C@@H](O)[C@@H]2O)c1`, the IC50 was above 50 µM with HT-1080; 35.6 µM with HCT-116; 31.7 µM in the assay on HepG2; 47.8 µM in the assay on A549; above 50 µM in the assay with MCF7; 32.2 µM in the assay with HeLa.
`COc1ccc(/C=C/C(=O)N[C@H]2[C@H](O[C@H]3CC[C@@]4(C)C(=CC[C@H]5[C@@H]6C[C@@H]7O[C@]8(CC[C@@H](C)CO8)[C@@H](C)[C@@H]7[C@@]6(C)CC[C@@H]54)C3)O[C@H](CO)[C@@H](O)[C@@H]2O)cc1`: the IC50 with HT-1080 is 3.5 µM; with HCT-116 it was 29.5 µM; in the assay with HepG2 it was 30.7 µM; in the assay with A549, 24.4 µM; with MCF7, 0.5 µM; with HeLa, 6.1 µM.
On to `Cc1ccc(/C=C/C(=O)N[C@H]2[C@H](O[C@H]3CC[C@@]4(C)C(=CC[C@H]5[C@@H]6C[C@@H]7O[C@]8(CC[C@@H](C)CO8)[C@@H](C)[C@@H]7[C@@]6(C)CC[C@@H]54)C3)O[C@H](CO)[C@@H](O)[C@@H]2O)cc1`, for which the IC50 in the assay on HT-1080 was 23.5 µM; in the assay with HCT-116, 40.4 µM; in the assay on HepG2, 35.5 µM; in the assay on A549, 41.6 µM; with MCF7, 5.3 µM; with HeLa, 6.5 µM.
